ChEMBL document CHEMBL1130762, “Structure-activity relationships of a series of 1-substituted-4-methylbenzimidazole neuropeptide Y-1 receptor antagonists” (Bioorg Med Chem Lett, 1998)
Several values for one entry are separate records, joined by “and”; a condition that tells them apart may be missing. Equal values may be shown once.

The compounds below were run on SK-N-MC (assay: Inhibition of NPY induced intracellular Ca++ mobilization in SK-N-MC cells is evaluated.).
Assay type: functional, cell-based, Homo sapiens

Row | Compound | Ki
1 | Cc1cccc2c1nc(COc1ccc(Cl)cc1)n2CCCC1CCN(CCCN2CCCCC2)CC1 | 26 nM

What follows are compounds tested on SK-N-MC (assay: Tested to reverse NPY induced inhibition of forskolin-stimulated cAMP in SK-N-MC cells is evaluated.).
Assay type: functional, cell-based, Homo sapiens

Row | Compound | Ki
2 | Cc1cccc2c1nc(COc1ccc(Cl)cc1)n2CCCC1CCN(CCCN2CCCCC2)CC1 | 46 nM

The compounds below were run against T1, Neuropeptide Y receptor type 1 (Homo sapiens, UniProt P25929) (assay: Binding affinity at cloned Neuropeptide Y-1 receptor expressed in AV-12 cells is evaluated.).
T1 sequence (P25929 whole entry): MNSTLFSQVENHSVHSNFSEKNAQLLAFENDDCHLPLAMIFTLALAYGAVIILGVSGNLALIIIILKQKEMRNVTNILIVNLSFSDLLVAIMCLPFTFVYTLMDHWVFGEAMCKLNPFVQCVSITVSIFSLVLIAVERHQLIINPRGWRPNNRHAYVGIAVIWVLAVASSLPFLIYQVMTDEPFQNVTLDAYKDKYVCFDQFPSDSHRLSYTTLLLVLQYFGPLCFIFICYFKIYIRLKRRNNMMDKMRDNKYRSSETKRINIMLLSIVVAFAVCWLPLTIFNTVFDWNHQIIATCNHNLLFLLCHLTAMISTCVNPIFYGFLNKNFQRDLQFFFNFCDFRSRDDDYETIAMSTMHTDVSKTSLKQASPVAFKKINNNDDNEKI
Assay type: cell-based, AV12

Row | Compound | Ki
3 | Cc1cccc2c1nc(COc1ccc(Cl)cc1)n2CCCC1CCN(CC(=O)O)CC1 | 2190 nM
4 | CCOC(=O)CN1CCC(CCCn2c(COc3ccc(Cl)cc3)nc3c(C)cccc32)CC1 | 427 nM
5 | Cc1cccc2c1nc(COc1ccc(Cl)cc1)n2CCCC1CCN(C)CC1 | 52 nM
6 | CCCN1CCC(CCCn2c(COc3ccc(Cl)cc3)nc3c(C)cccc32)CC1 | 29 nM
7 | Cc1cccc2c1nc(COc1ccc(Cl)cc1)n2CCCC1CCN(CCCc2ccccc2)CC1 | 57 nM
8 | CCOC(=O)CCCN1CCC(CCCn2c(COc3ccc(Cl)cc3)nc3c(C)cccc32)CC1 | 29 nM
9 | Cc1cccc2c1nc(COc1ccc(Cl)cc1)n2CCCC1CCN(CCCCN2CCCCC2)CC1 | 52 nM and 5.7 nM
10 | Cc1cccc2c1nc(COc1ccc(Cl)cc1)n2CCCC1CCN(CCc2ccccc2)CC1 | 29 nM
11 | Cc1cccc2c1nc(COc1ccc(Cl)cc1)n2CCCC1CCN(CCCC(=O)O)CC1 | 1630 nM
12 | Cc1cccc2c1nc(COc1ccc(Cl)cc1)n2CCCC1CCNCC1 | 335 nM
13 | Cc1cccc2c1nc(COc1ccc(Cl)cc1)n2CCCC1CCN(C(=O)CCN2CCCCC2)CC1 | 260 nM
14 | Cc1cccc2c1nc(COc1ccc(Cl)cc1)n2CCCC1CCN(CCN2CCCCC2)CC1 | 37 nM
15 | Cc1cccc2c1nc(COc1ccc(Cl)cc1)n2CCCC1CCN(CC(=O)N2CCCCC2)CC1 | 136 nM
16 | Cc1cccc2c1nc(COc1ccc(Cl)cc1)n2CCCC1CCN(Cc2ccccc2)CC1 | 109 nM
17 | Cc1cccc2c1nc(COc1ccc(Cl)cc1)n2CCCC1CCN(CCCN2CCCCC2)CC1 | 4.5 nM
18 | Cc1cccc2c1nc(COc1ccc(Cl)cc1)n2CCCC1CCN(CCC(C)C)CC1 | 11 nM
19 | Cc1cccc2c1nc(COc1ccc(Cl)cc1)n2CCCC1CCN(CCCC(=O)N2CCCCC2)CC1 | 21 nM
20 | Cc1cccc2c1nc(COc1ccc(Cl)cc1)n2CCCC1CCN(CCCC(N)=O)CC1 | 88 nM

Each compound was assayed against T1, Neuropeptide Y receptor type 1 (assay: Binding affinity at cloned Neuropeptide Y receptor type 1 expressed in AV-12 cells is evaluated.).
Assay type: cell-based, AV12

Row | Compound | Ki
21 | Clc1ccc(OCc2nc3c(OCCCN4CCCCC4)cccc3n2CCCC2CCCNC2)cc1 (stereo unspecified) | 2 nM
